Ten compounds from US9969697B2, “3,4-dihydroquinazoline derivative and combination comprising the same” (UNIVERSITY-INDUSTRY COOPERATION GROUP OF KYUNG HEE …, priority 2014, dated 2018) can be followed below.

Assay [1] relates to lung cancer cells (A549). The assay is described as follows: Cell cycle analysis by PI staining / flow cytometry, with combination index. Format: cell-based, human. Set-up: SubG1: unit not given here. The note with it: A549, 48 hours. The procedure: To measure the inviability of cancer cells quantitatively, the cell cycle thereof was analyzed through flow cytometry as follows, in accordance with the method given in the document [See Kim, Y. H. et al., Expression of the murine homologue of the cell cycle control protein […] in T lymphocytes.
After adding ribonuclease (2.5 μg/ml) and propidium iodide (50 μg/ml) together with 500 μl of PBS, the cells were left for 30 minutes in the dark at room temperature, followed by analyzing cell cycle within 1 hour using FACScan flow cytometer (Becton Dickinson Co, Heidelberg, Germany).
(§1) Combination index (CI) mathematically expresses the cytotoxicity on cancer cells or growth inhibition of cancer cells through relative comparison after treating drugs alone or in a combination. The CI is the quantitative concept introduced by Paul Talalay and Ting-Chao Chou and was calculated using CalcuSyn software. The effect of combination treatment according to the values of CI was defined as follows.
Background: Flow cytometry measures light scatter and fluorescence of single cells or particles in a stream.

The subject of assay [2] is pancreatic cancer cells (PANC-1). The description is as above. The assay is classed as cell-based, human. To be noted: PANC-1, 48 hours, Table 3.
Assay [3] has as its target T1, α1G T-type calcium channel (Homo sapiens, UniProt O43497).
T1 construct: expressed in transfected cells
As to the kind of experiment: T-type calcium channel activity, whole-cell patch-clamp in HEK293 cells. The assay is classed as cell-based. The note with it: HEK293 cells expressing α1G T-type calcium channel; read-out: T-type calcium channel blocking effect (IC50: μM). How it is done:
The culture medium was replaced with a fresh medium every 3 to 4 days, and the cultured cells were subjected to sub-culture every week. […] The cells used for T-type calcium channel activity assay were cultured on a cover slip coated with poly-L-lysine (0.5 mg/mL) whenever sub-cultured, and their calcium channel activity was recorded 2 to 7 days after the cultivation. Current of the T-type calcium channel at a single cell level was measured according to an electrophysiological whole-cell patch-clamp method using EPC-9 amplifier (HEKA, Germany). At this time, a cell exterior solution [NaCl 140 mM, CaCl2 2 mM, and HEPES 10 mM (pH 7.4)] and a cell interior solution [KCl 130 mM, HEPES 10 mM, EGTA 11 mM, and MgATP 5 mM (pH 7.4)] were employed. Inward current caused by the T-type calcium channel activation which occurred when the cells were converted into a whole-cell recording mode by stabbing a microglass electrode having 3-4 MΩ resistance which was filled with the cell interior solution into a single cell and depolarized at −30 mV (50 ms duration period) every 10 s with fixing membrane potential to −100 mV was measured according to a T-type calcium Channel activity protocol activated at low voltage.
(In general: The patch-clamp technique gives a direct electrical read-out from membranes.)

Assay [4] concerns A549 cell line (human lung cancer). The assay is described as follows: MTT cytotoxicity assay on cancer cells. To be noted: 48 hours after treatment. Format: cell-based. The procedure: A549 cell line (human lung cancer) and PANC-1 cell line (human pancreatic cancer) were obtained from Korean Cell Line Bank (KCLB). The cells were cultured in RPMI 1640 medium supplemented with 10% fetal bovine serum (FBS) being heated and inactivated, penicillin (100 units/ml) and streptomycin sulfate (100 units/ml) under the condition of 37° C. and 5% CO2.
In order to confirm the cytotoxicity of drugs, an MTT (3-(4,5-dimethylthiazol-2-yl)-2,5-diphenyltetrazolium bromide) assay was conducted as follows [See Armichael et al., Evaluation of a tetrazolium-based semiautomated colorimetric assay: assessment of chemisensitivity testing. Cancer Research, 47, pp. 944-946, 1987]. The MTT assay is based on the reduction of water-soluble MTT (tetrazolium salt, yellow) which can be absorbed in living cells to its water-insoluble formazan crystals (purple) by activity of oxidoreductase enzymes of mitochondria. That is, when the number of viable cells is more, the formation of formazan crystals increases and the value of absorbance becomes higher.
Each of the cultured cancer cells was inoculated in a 96-well plate (5×10^4 cells/well) and cultured in RPMI medium (100 μl) containing 5% FBS. In 48 hours after the treatment of drugs (200, 100, 50, 25, 12.5, 6.25, 3.125 μM), 20 μl of an MTT solution (5.0 mg/ml) was added to each well, followed by further incubation for 4 hours. The supernatant of the plate was collected, and formazan crystals formed by MTT in the cells were added in 200 μl of DMSO to dissolve the precipitate. The OD value was measured at 540 nm using microplate reader (Molecular Devices).

The test system of assay [5] is lung cancer cells (A549). As to the kind of experiment: Annexin V-FITC/PI double staining assay (apoptosis), with combination index. On the set-up: unit not given here. Format: cell-based, human. How it is done: Cell death include the event that phosphatidylserine translocated to the surface of cell membrane is bound to Annexin V-FITC to express fluorochromes. Cells were treated with drugs, harvested, washed with ice-cold PBS twice, and supplied with 100 μl of Annexin V binding buffer ([…] 4-(2-hydroxyethyl)piperazine-1-ethanesulfonic acid (HEPES)/NaOH, 140 mM NaCl, 2.5 mM CaCl2, pH 7.4). Thereto, 5 μl of FITC-conjugated Annexin V and PI (50 μg/ml) were added. The mixture was left for 30 minutes in the dark at room temperature, followed by analysis within 1 hour using FACScan flow cytometer (Becton Dickinson Co, Heidelberg, Germany).
as §1

T1 sequence (O43497 whole entry): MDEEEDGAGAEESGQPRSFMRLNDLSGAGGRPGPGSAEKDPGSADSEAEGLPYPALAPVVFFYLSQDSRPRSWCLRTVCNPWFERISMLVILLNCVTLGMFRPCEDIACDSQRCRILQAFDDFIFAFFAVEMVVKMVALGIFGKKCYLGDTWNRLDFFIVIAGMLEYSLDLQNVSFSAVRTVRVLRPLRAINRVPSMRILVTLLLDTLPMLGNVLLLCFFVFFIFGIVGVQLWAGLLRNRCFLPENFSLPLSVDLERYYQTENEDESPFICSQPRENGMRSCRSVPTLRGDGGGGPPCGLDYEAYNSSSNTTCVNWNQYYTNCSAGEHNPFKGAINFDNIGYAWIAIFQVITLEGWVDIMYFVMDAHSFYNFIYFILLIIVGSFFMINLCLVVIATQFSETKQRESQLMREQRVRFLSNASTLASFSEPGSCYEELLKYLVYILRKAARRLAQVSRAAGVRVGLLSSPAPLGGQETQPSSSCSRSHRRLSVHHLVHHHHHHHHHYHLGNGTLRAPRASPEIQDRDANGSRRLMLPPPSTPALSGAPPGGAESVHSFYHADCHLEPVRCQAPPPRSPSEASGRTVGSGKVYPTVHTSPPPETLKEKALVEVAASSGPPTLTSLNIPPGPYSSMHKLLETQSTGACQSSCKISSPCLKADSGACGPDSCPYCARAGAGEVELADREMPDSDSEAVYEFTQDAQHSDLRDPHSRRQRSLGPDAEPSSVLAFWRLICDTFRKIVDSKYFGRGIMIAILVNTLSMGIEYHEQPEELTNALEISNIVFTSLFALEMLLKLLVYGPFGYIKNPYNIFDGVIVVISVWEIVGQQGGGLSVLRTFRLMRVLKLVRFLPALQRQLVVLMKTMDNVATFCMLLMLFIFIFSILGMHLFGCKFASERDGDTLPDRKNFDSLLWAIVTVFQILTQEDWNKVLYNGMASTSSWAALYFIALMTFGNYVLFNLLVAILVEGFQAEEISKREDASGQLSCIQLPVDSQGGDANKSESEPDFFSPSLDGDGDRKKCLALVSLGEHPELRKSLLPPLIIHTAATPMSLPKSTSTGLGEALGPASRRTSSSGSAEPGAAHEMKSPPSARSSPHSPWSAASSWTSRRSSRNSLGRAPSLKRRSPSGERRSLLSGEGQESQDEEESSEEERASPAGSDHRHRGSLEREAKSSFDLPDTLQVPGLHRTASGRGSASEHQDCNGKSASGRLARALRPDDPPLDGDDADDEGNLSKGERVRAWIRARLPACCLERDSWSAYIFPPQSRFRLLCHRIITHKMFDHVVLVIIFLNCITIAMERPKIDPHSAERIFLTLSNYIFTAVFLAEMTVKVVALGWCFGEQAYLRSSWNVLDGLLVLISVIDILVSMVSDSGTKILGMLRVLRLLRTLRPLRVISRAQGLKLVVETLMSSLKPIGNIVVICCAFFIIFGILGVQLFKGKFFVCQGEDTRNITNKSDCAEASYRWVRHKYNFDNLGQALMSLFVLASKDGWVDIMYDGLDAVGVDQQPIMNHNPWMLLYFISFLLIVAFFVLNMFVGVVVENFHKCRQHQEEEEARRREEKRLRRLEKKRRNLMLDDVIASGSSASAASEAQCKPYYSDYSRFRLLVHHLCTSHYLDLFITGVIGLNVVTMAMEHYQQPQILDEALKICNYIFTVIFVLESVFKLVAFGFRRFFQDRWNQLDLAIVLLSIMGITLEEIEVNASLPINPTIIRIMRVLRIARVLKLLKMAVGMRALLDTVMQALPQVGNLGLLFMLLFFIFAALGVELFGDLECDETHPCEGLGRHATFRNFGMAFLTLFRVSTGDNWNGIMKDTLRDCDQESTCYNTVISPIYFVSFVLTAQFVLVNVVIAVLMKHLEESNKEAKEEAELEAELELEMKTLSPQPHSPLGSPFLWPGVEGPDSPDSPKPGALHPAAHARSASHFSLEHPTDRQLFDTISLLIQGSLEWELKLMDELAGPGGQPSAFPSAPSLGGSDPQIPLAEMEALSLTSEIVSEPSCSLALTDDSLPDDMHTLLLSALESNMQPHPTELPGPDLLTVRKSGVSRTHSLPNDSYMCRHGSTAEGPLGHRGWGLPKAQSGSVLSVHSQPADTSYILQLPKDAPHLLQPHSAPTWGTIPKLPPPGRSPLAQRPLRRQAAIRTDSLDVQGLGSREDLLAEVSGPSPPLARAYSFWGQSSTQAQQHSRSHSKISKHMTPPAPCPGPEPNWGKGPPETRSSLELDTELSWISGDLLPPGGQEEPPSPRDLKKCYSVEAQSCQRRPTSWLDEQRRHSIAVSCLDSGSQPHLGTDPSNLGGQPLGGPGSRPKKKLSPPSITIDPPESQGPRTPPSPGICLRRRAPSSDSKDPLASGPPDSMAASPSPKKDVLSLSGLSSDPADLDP

For `N.N.[Cl][Pt][Cl]` [Cisplatin], in assay [1] (20 μM, Table 2), the G0/G1 was determined as 9.0, the G2/M turned out to be 67.5, the S is reported as 13.1 and the SubG1 is reported as 10.5. For the same compound, in assay [1] (30 μM, Table 2), the G0/G1 turned out to be 14.0, the G2/M is 52.9, the S stood at 15.8 and the SubG1 is 17.0. For the same compound, in assay [2] (30 μM), the G0/G1 is given as 42, the G2/M came out at 29.4, the S came to 9.4 and the SubG1 worked out at 9.3.

Regarding `CN(C)C(=O)NCCCN(C)C1=Nc2ccccc2C(CC(=O)NCc2ccccc2)N1c1ccc(C2CCCCC2)cc1` (stereo not shown) [Compound I-1, 4-(N-benzylacetamido)-3-(4-cyclohexylphenyl)-2-[N—(N′,N′-dimethylureidopropyl)-N-methyl]amino-3,4-dihydroquinazoline], the IC50 in assay [3] worked out at 0.39 ± 0.11 µM; in assay [4], 12.2 µM.

As for `CN(C)C(=O)NCCCN(C)C1=Nc2ccccc2C(CC(=O)NCc2ccc(F)cc2)N1c1ccc(C2CCCCC2)cc1` (stereo not shown) [Compound I-2, 4-[N-(4-fluorobenzyl)acetamido]-3-(4-cyclohexylphenyl)-2-[N—(N′,N′-dimethylureidopropyl)-N-methyl]amino-3,4-dihydroquinazoline], the 50% inhibitory concentration (IC50) in assay [3] was 0.89 ± 0.06 µM; in assay [4], 7.3 µM. For the same compound, the G0/G1 is reported as 79.1 in assay [1] (10 μM, Table 2); 77.4 in assay [1] (10 μM, Table 4); 76.8 in assay [1] (10 μM, Table 5); 44.7 in assay [2] (2.5 μM). Moreover, the G2/M in assay [1] (10 μM, Table 2) is reported as 10.9; in assay [1] (10 μM, Table 4), 13.3; in assay [1] (10 μM, Table 5), 12.1; in assay [2] (2.5 μM), 35. The S in assay [1] (10 μM, Table 2) was determined as 2.4; in assay [1] (10 μM, Table 4) it was 5.4; in assay [1] (10 μM, Table 5), 7.6; in assay [2] (2.5 μM) it was 7.2. In addition, the SubG1 worked out at 7.6 in assay [1] (10 μM, Table 2); 4.0 in assay [1] (10 μM, Table 4); 3.7 in assay [1] (10 μM, Table 5); 2.5 in assay [2] (2.5 μM). Further, the “AV+/PI− (early apoptosis)” value turned out to be 2.4 in assay [5] (A549, 2.5 μM); 1.88 in assay [5] (A549, 5 μM); 8.8 in assay [5] (A549, 10 μM). Besides, the “Total AV+ (sum of early and late apoptosis)” value in assay [5] (A549, 2.5 μM) is recorded as 6.08; in assay [5] (A549, 5 μM), 4.78; in assay [5] (A549, 10 μM), 13.14.

For the compound `COc1ccc(CN(C(C)=O)C2c3ccccc3N=C(N(C)CCCNC(=O)N(C)C)N2c2ccc(C3CCCCC3)cc2)cc1` (stereo not shown) [Compound I-3, 4-[N-(4-methoxybenzyl)acetamido)-3-(4-cyclohexylphenyl)-2-[N—(N′,N′-dimethylureidopropyl)-N-methyl]amino-3,4-dihydroquinazoline], in assay [1] (10 μM, Table 6), the G0/G1 is 76.8, the G2/M is reported as 12.1, the S was determined as 7.6 and the SubG1 came to 3.7.

Turning to `COc1cccc2c1C(=O)c1c(O)c3c(c(O)c1C2=O)C[C@@](O)(C(=O)CO)C[C@@H]3O[C@H]1C[C@H](N)[C@H](O)[C@H](C)O1` [Doxorubicin], in assay [1] (10 μM, Table 5), the G0/G1 is 36.7, the G2/M turned out to be 18.3, the S is reported as 11.9 and the SubG1 is given as 33.5. For the same compound, in assay [1] (10 μM, Table 6), the G0/G1 was determined as 36.7, the G2/M is 18.3, the S turned out to be 11.9 and the SubG1 was found to be 33.5.

Consider `COc1cc([C@@H]2c3cc4c(cc3[C@@H](O[C@@H]3O[C@@H]5CO[C@@H](C)O[C@H]5[C@H](O)[C@H]3O)[C@H]3COC(=O)[C@H]23)OCO4)cc(OC)c1O` [Etoposide], for which, in assay [1] (50 μM, Table 4), the G0/G1 is listed as 36.0, the G2/M was found to be 18.9, the S was 12.3 and the SubG1 is listed as 33.0. In addition, in assay [5] (A549, 50 μM), the “AV+/PI− (early apoptosis)” value was found to be 19.1; the “Total AV+ (sum of early and late apoptosis)” value came to 31.68.

With `COc1cc2ncnc(Nc3ccc(F)c(Cl)c3)c2cc1OCCCN1CCOCC1` [Gefitinib], in assay [1] (40 μM, Table 5), the G0/G1 is on record as 72.7, the G2/M was 11.8, the S came out at 4 and the SubG1 is recorded as 11.6. Further, in assay [1] (40 μM, Table 6), the G0/G1 is listed as 72.7, the G2/M came to 11.8, the S worked out at 4 and the SubG1 is on record as 11.6.

In the case of `Cc1ccc(NC(=O)c2ccc(CN3CCN(C)CC3)cc2)cc1Nc1nccc(-c2cccnc2)n1` [Imatinib], in assay [1] (100 μM, Table 5), the G0/G1 is recorded as 72.4, the G2/M worked out at 14.4 and the SubG1 stood at 2.9. In addition, in assay [1] (100 μM, Table 6), the G0/G1 is on record as 72.4, the G2/M is given as 14.4 and the SubG1 worked out at 2.9.

For the compound `COCC(=O)O[C@]1(CCN(C)CCCc2nc3ccccc3[nH]2)CCc2cc(F)ccc2[C@@H]1C(C)C` [Mibefradil], in assay [4], the concentration for half-maximal inhibition (IC50) turned out to be 24.9 µM.

As to `C#Cc1cccc(Nc2ncnc3cc(OCCOC)c(OCCOC)cc23)c1` [erlotinib, Erlotinib], in assay [1] (150 μM, Table 5), the G0/G1 came to 70.6, the G2/M was 12.9, the S is 7.2 and the SubG1 amounted to 9.6. In assay [1] (300 μM, Table 6), the G0/G1 is listed as 27.7, the G2/M worked out at 1.2, the S is listed as 1 and the SubG1 is 70.3.

The IC50 is the concentration needed to halve the response being measured.
